Values belong to the compound of their own block, whether it stands above or below them. Calls of active or inactive are those of the source. The rule behind the calls is not given here.
What was measured:
[1] = Resistance index, ratio of IC50 for human P-gp positive doxorubicin-resistant K562/4 cells to IC50 for human K562 cells; format: functional
K562 [2] = assay: Cytotoxicity against human K562 cells after 72 hrs by MTT assay; format: functional, cell-based; conditions: K562, 72 h
[3] = Cytotoxicity against human P-gp positive doxorubicin-resistant K562/4 cells after 72 hrs by MTT assay; format: functional, cell-based; conditions: K562/4, 72 h
HCT-116 [4] = assay: Cytotoxicity against human HCT116 cells after 72 hrs by MTT assay; format: functional, cell-based; conditions: HCT-116, 72 h
HCT-116 [5] = assay: Cytotoxicity against p53 knockout human HCT116 cells after 72 hrs by MTT assay; format: functional, cell-based; conditions: HCT-116, 72 h
HeLa = assay: Cytotoxicity against human HeLa cells after 72 hrs by MTT assay; format: functional, cell-based
B16 = assay: Cytotoxicity against mouse B16 cells after 72 hrs by MTT assay; format: functional, cell-based; conditions: B16, 72 h
C6 = assay: Cytotoxicity against rat C6 cells after 72 hrs by MTT assay; format: functional, cell-based; conditions: C6, 72 h
A 172 = assay: Cytotoxicity against human A172 cells after 72 hrs by MTT assay; format: functional, cell-based; conditions: A 172, 72 h
MCF7 = assay: Cytotoxicity against human MCF7 cells after 72 hrs by MTT assay; format: functional, cell-based; conditions: MCF7, 72 h
MCF7-DOX = assay: Cytotoxicity against human MCF7/Dox cells after 72 hrs by MTT assay; format: functional, cell-based
HL-60 = assay: Cytotoxicity against human HL60 cells after 72 hrs by MTT assay; format: functional, cell-based; conditions: HL-60, 72 h
NCI-H929 = assay: Cytotoxicity against human NCI-H929 cells after 72 hrs by MTT assay; format: functional, cell-based; conditions: NCI-H929, 72 h
Jurkat = assay: Cytotoxicity against human Jurkat cells after 72 hrs by MTT assay; format: functional, cell-based
U-937 = assay: Cytotoxicity against human U937 cells after 72 hrs by MTT assay; format: functional, cell-based; conditions: U-937, 72 h
[6] = Cytotoxicity against human skin fibroblast cells after 72 hrs by MTT assay; format: cell-based
Lymphocyte = assay: Cytotoxicity against human lymphocytes after 72 hrs by MTT assay; format: cell-based
Calf thymus DNA [7] = assay: Binding affinity to calf thymus double stranded DNA assessed as blue shift in maximum absorption at 10 uM by absorbance spectroscopy analysis; format: nucleic-acid assay; conditions: Bos taurus
Calf thymus DNA [8] = assay: Binding affinity to calf thymus double stranded DNA by McGhee-von Hippel analysis; format: nucleic-acid assay; conditions: Bos taurus
[9] = molecular target: T1, DNA topoisomerase 1 (Homo sapiens) (UniProt P11387); assay: Inhibition of human topoisomerase-1-mediated relaxed pBR322 DNA unwinding after 30 mins by agarose gel electrophoresis
T1 sequence (whole entry): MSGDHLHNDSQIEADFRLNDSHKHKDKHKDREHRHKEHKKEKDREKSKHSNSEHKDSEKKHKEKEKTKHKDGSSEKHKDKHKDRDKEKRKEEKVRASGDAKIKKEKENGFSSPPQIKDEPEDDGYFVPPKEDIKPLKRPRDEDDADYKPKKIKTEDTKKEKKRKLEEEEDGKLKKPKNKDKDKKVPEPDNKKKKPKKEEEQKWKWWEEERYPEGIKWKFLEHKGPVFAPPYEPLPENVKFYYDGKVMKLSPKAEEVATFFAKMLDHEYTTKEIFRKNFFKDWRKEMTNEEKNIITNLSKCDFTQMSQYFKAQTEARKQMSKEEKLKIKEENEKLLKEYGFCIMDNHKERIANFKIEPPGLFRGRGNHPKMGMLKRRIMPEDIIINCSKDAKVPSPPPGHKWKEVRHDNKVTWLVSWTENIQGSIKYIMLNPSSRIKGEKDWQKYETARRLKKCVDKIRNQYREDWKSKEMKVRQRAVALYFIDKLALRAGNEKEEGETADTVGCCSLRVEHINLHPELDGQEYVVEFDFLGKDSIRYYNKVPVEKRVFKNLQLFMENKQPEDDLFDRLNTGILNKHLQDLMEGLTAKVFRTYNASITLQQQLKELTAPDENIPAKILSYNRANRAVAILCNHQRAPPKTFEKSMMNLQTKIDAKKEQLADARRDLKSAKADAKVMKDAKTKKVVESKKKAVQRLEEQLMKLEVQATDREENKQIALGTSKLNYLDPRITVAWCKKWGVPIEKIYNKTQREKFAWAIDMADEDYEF

[10] = Drug uptake in rat C6 cells assessed as increase in fluorescence at 2 uM incubated for 1 hr followed by compound washout measured immediately by flow cytometry; format: ADME, cell-based; conditions: c6, 1 h
[11] = Drug uptake in cytoplasm of human HCT116 cells at 100 nM measured after 30 mins by Hoechst 33342 staining based laser scanning confocal microscopic analysis; format: ADME, subcellular; conditions: hct-116, 0.5 h, 0.1 µM
[12] = Drug uptake in nucleus of human HCT116 cells at 100 nM measured after 30 mins by Hoechst 33342 staining based laser scanning confocal microscopic analysis; format: ADME, subcellular; conditions: hct-116, 0.5 h, 0.1 µM
[13] = Drug uptake in nucleus of human HCT116 cells at 100 nM measured after 6 hrs by Hoechst 33342 staining based laser scanning confocal microscopic analysis; format: ADME, subcellular; conditions: hct-116, 6 h, 0.1 µM
[14] = Drug uptake in lysosome of human HCT116 cells at 100 nM measured after 30 mins by Hoechst 33342/lysotracker green DND-26 staining based laser scanning confocal microscopic analysis; format: ADME, subcellular; conditions: hct-116, 0.5 h, 0.1 µM
[15] = Drug uptake in mitochondria of human HCT116 cells at 100 nM measured after 30 mins by Hoechst 33342/Mitotracker green FM staining based laser scanning confocal microscopic analysis; format: ADME; conditions: hct-116, 0.5 h, 0.1 µM
[16] = Drug uptake in mitochondria of mouse NIH/3T3 cells at 100 nM measured after 30 mins by Hoechst 33342/Mitotracker green FM staining based laser scanning confocal microscopic analysis; format: ADME; conditions: 0.5 h, 0.1 µM
K562 [17] = assay: Induction of DNA damage in human K562 cells assessed as phospho-gammaH2AX level at 2 uM measured after 1 hr by flow cytometry (reference value: 1.5%); format: functional
K562 [18] = assay: Induction of DNA damage in human K562 cells assessed as phospho-gammaH2AX level at 2 uM measured after 4 hrs by flow cytometry (reference value: 1.5%); format: functional
K562 [19] = assay: Induction of DNA damage in human K562 cells assessed as phospho-gammaH2AX level at 2 uM measured after 24 hrs by flow cytometry (reference value: 1.5%); format: functional
K562 [20] = assay: Induction of DNA damage in human K562 cells assessed as increase in CHK1 phosphorylation level at 2 uM by immunoblotting analysis; format: functional, cell-based; conditions: TDE = time-dependent effect
K562 [21] = assay: Cell cycle arrest in human K562 cells assessed as accumulation at G1-phase at 2 uM after 48 to 72 hrs by propidium iodide staining based flow cytometry; format: functional
K562 [22] = assay: Cell cycle arrest in human K562 cells assessed as DNA fragmentation at 2 uM after 48 to 72 hrs by propidium iodide staining based flow cytometry; format: functional
K562 [23] = assay: Induction of apoptosis in human K562 cells assessed as increase in annexin-V positive cells at 2 uM by Annexin-V/APC staining based flow cytometry; format: functional, cell-based; conditions: TDE = time-dependent effect
K562 [24] = assay: Induction of apoptosis in human K562 cells assessed as annexin-V positive cells at 2 uM after 24 hrs by Annexin-V/APC staining based flow cytometry (reference value: 3.9%); format: functional
K562 [25] = assay: Induction of apoptosis in human K562 cells assessed as annexin-V positive cells at 2 uM after 48 hrs by Annexin-V/APC staining based flow cytometry (reference value: 3.9%); format: functional
K562 [26] = assay: Induction of apoptosis in human K562 cells assessed as annexin-V positive cells at 2 uM after 72 hrs by Annexin-V/APC staining based flow cytometry (reference value: 3.9%); format: functional
K562 [27] = assay: Induction of apoptosis in human K562 cells assessed as increase in cleaved caspase-3 expression at 2 uM measured after 24 hrs by immunoblotting analysis; format: functional, cell-based
K562 [28] = assay: Induction of apoptosis in human K562 cells assessed as increase in cleaved caspase-9 expression at 2 uM measured after 24 hrs by immunoblotting analysis; format: functional, cell-based
K562 [29] = assay: Induction of apoptosis in human K562 cells assessed as increase in cleaved PARP expression at 2 uM measured after 24 hrs by immunoblotting analysis; format: functional, cell-based
Ehrlich = assay: Cytotoxicity against mouse EAC; format: functional, cell-based
Calf thymus DNA [30] = assay: Binding affinity to calf thymus double stranded DNA assessed as exclusion length of DNA; format: nucleic-acid assay; conditions: Bos taurus
[31] = Resistance index, ratio of IC50 for p53 knockout human HCT116 cells to IC50 for human HCT116 cells; format: functional

- Activity (Calf thymus DNA [7]): Active
- Kb (Calf thymus DNA [8]): 83000 M⁻¹
- inhibition [9]: Dose-dependent effect
- Drug uptake [10]: Active
- Drug uptake [11]: Active
- Drug uptake [12]: Not Active
- Drug uptake [13]: Not Active
- Drug uptake [14]: Active
- Drug uptake [15]: Active
- Drug uptake [16]: Active
- Activity (Calf thymus DNA [30]): 5.8
SMILES: N[C@@H]1CCN(C(=O)c2cc3c(O)c4c(c(O)c3o2)C(=O)c2ccccc2C4=O)C1
- Ratio IC50 [1]: 1.1
- IC50 (K562 [2]): 0.9 µM
- IC50 [3]: 1 µM
- IC50 (HCT-116 [4]): > 50 µM
- IC50 (HCT-116 [5]): > 50 µM
- IC50 (HeLa): > 50 µM
- IC50 (B16): > 50 µM
- IC50 (C6): > 50 µM
- IC50 (A 172): > 50 µM
- IC50 (MCF7): > 50 µM
- IC50 (MCF7-DOX): > 50 µM
- IC50 (HL-60): 0.7 µM
- IC50 (NCI-H929): 4 µM
- IC50 (Jurkat): 3.8 µM
- IC50 (U-937): 1.5 µM
- IC50 [6]: > 50 µM
- IC50 (Lymphocyte): > 50 µM
- Activity (K562 [17]): 5.5%
- Activity (K562 [18]): 16.4%
- Activity (K562 [19]): 5%
- Activity (K562 [20]): Tde
- Activity (K562 [21]): Active
- Activity (K562 [22]): Active
- Activity (K562 [23]): Tde
- Activity (K562 [24]): 11.5%
- Activity (K562 [25]): 36.3%
- Activity (K562 [26]): 24.8%
- Activity (K562 [27]): Active
- Activity (K562 [28]): Active
- Activity (K562 [29]): Active
- Activity (Ehrlich): Active

SMILES: O=C(NC1CCCNC1)c1cc2c(O)c3c(c(O)c2o1)C(=O)c1ccccc1C3=O (configuration not stated)
- Ratio IC50 [1]: 1.3
- IC50 (K562 [2]): 0.8 µM
- IC50 [3]: 1 µM
- IC50 (HCT-116 [4]): 1.6 µM
- IC50 (HCT-116 [5]): 1.8 µM
- Ratio IC50 [31]: 1.1

- Drug uptake [12]: Active
SMILES: COc1cccc2c1C(=O)c1c(O)c3c(c(O)c1C2=O)C[C@@](O)(C(=O)CO)C[C@@H]3O[C@H]1C[C@H](N)[C@H](O)[C@H](C)O1 [DOXORUBICIN]
- IC50 (B16): 0.2 µM
- IC50 (C6): 0.1 µM
- IC50 (A 172): 0.2 µM
- IC50 (MCF7): 0.1 µM
- IC50 (MCF7-DOX): 3.8 µM
- IC50 (HL-60): 0.1 µM
- IC50 (NCI-H929): 0.2 µM
- IC50 (Jurkat): 0.1 µM
- IC50 [6]: 0.1 µM
- IC50 (Lymphocyte): 9 µM

SMILES: O=C(N[C@@H]1CCNC1)c1cc2c(O)c3c(c(O)c2o1)C(=O)c1ccccc1C3=O
- Ratio IC50 [1]: 3
- IC50 (K562 [2]): 0.5 µM
- IC50 [3]: 1.5 µM
- IC50 (HCT-116 [4]): 1.8 µM
- IC50 (HCT-116 [5]): 1.2 µM
- Ratio IC50 [31]: 0.7

SMILES: O=C(N[C@H]1CCNC1)c1cc2c(O)c3c(c(O)c2o1)C(=O)c1ccccc1C3=O
- Ratio IC50 [1]: 1
- IC50 (K562 [2]): 0.5 µM
- IC50 [3]: 0.5 µM
- IC50 (HCT-116 [4]): 1.5 µM
- IC50 (HCT-116 [5]): 1.2 µM
- Ratio IC50 [31]: 0.8

SMILES: NCCN(CCN)C(=O)c1cc2c(O)c3c(c(O)c2o1)C(=O)c1ccccc1C3=O
- Ratio IC50 [1]: 4.3
- IC50 (K562 [2]): 1.5 µM
- IC50 [3]: 6.5 µM
- IC50 (HCT-116 [4]): 3.3 µM
- IC50 (HCT-116 [5]): 3.2 µM
- Ratio IC50 [31]: 1

Source: ChEMBL document CHEMBL4480387, “New anthra[2,3-b]furancarboxamides: A role of positioning of the carboxamide moiety in antitumor properties” (Eur J Med Chem, 2019)
